Legend:
[1] = Ultraviolet absorbing properties compared with p-aminobenzoic acid; format: physicochemical; set-up: UV max: unit not given here; settings: for α: ultraviolet absorption
Procedure: The ultraviolet absorbing properties of the compounds of the present invention is generally shown by a comparison with p-aminobenzoic acid which is the active ingredient in most commercial sunscreens. Such properties are within the ultraviolet absorbing ranges of […] range critical to effectiveness. A representative compound of the invention is compared to p-aminobenzoic acid in the following Table.

[2] = target: T1, cyclooxygenase (Rattus norvegicus, UniProt Q63921); assay: ARBC RBL-1 whole cell cyclooxygenase assay (PGF2α by RIA); format: cell-based; settings: RBL-1 intact cells, 5 μM A23187, PGF2α
T1 construct: host or cells: RBL-1 (rat basophilic leukemia)
T1 sequence (Q63921 27-602): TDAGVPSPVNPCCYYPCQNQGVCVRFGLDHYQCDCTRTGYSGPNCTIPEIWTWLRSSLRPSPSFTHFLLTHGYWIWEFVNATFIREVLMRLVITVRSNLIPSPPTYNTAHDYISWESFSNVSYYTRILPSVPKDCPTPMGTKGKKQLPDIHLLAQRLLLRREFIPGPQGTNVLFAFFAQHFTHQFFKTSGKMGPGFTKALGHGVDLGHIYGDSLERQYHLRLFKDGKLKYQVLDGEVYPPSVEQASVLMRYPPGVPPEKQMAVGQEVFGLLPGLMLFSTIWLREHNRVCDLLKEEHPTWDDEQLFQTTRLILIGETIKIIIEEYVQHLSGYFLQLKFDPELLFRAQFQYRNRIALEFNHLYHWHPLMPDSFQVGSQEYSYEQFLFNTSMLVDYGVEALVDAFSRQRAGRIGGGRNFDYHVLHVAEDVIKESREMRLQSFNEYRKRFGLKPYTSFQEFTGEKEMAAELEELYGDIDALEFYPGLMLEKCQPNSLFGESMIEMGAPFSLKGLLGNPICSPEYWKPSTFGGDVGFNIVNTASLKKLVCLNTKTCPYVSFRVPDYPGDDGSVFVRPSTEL
Procedure: (§1) ARBL/ARBC Whole Cell 5-Lipoxygenase and Cyclooxygenase Assays
(§2) The rat basophilic leukemia cell line (RBL-1) was obtained from the American Type Culture Collection (Rockville, Md.).
(§3) Radioimmuno assay (RIA) kits of LTB4 and PGF2α were obtained from Amersham (Arlington Heights, Ill.) and Seragen (Boston, Mass.) respectively.
(§4) All tissue culture media were obtained from GIBCO (Grand Island, N.Y.).
(§5) RBL-1 cells were grown in culture (suspension) in Eagle's minimum essential medium supplemented with 12% fetal bovine serum and 1:100 antibiotic-antimycotic mixture at 37° C. in an incubator supplied with air-5% carbon dioxide. Cells were harvested by centrifugation. They were washed with cold phosphate buffered saline pH 7.4 (PBS; NaCl, 7.1 g; Na2 HPO4, 1.15 g; KH2 PO4, 0.2 g; and KCl, 0.2 g/L). […] Calcium ionophore A23187 (5 μM) was added and cells were incubated for seven minutes at 37° C. The reaction was stopped by chilling the tubes in ice for ten minutes. Cells were separated by centrifugation and the supernatant was stored at -20°. Aliquots (100 μl) were analyzed for LTB4 and PGF2α using radioimmuno assay kits as provided by the supplier.

[3] = target: T2, 5-lipoxygenase (Rattus norvegicus, UniProt P12527); assay: ARBL RBL-1 whole cell 5-lipoxygenase assay (LTB4 by RIA); format: cell-based; settings: RBL-1 intact cells, 5 μM A23187, LTB4
T2 construct: host or cells: RBL-1 (rat basophilic leukemia)
T2 sequence (P12527 1-673): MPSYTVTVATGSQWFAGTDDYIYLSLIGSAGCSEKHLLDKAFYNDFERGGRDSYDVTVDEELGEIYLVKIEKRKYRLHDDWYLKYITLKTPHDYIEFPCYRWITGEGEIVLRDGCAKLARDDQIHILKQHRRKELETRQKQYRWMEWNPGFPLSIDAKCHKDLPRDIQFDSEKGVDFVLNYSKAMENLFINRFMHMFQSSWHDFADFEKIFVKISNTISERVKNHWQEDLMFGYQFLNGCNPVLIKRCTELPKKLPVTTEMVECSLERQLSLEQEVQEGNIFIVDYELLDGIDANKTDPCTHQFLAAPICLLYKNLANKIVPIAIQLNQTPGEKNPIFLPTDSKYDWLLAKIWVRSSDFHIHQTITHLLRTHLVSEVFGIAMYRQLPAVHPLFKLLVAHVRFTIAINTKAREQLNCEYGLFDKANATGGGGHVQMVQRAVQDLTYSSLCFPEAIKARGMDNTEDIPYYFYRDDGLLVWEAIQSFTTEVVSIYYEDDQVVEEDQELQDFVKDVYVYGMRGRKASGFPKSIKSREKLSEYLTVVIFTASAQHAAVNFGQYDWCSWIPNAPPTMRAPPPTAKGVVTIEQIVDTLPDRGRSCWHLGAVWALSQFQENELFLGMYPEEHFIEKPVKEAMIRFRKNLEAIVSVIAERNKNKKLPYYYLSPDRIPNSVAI
Procedure: as §1, §2, §3, §4, §5

Row | SMILES | UV max [1] | α [1] | IC50 [2] [µM] | IC50 [3] [µM]
1 | COc1cc(C=Cc2cc(C)[nH]n2)ccc1O [Example 5, 3-[β-(4'-Hydroxy-3'-methoxyphenyl)ethenyl]-5-methyl-pyrazole] | 292 | 111.1 | – | –
2 | COC(=O)C(=Cc1cc(C(C)(C)C)c(O)c(C(C)(C)C)c1)c1cc(C)no1 [Example 46, 5-[α-Carbomethoxy-β-(4'-hydroxy-3',5'-bis(1,1-dimethylethyl)phenyl)ethenyl]-3-methylisoxazole] | – | – | 2 | 10
3 | Cc1cc(C=Cc2cc(Br)c(O)c(Br)c2)no1 [Example 54B] | – | – | 4.2 | 3.3
4 | Cc1cc(C=Cc2cc(Br)c(O)c(Br)c2)n[nH]1 [Example 58, 3-[β-(4'-Hydroxy-3',5'-dibromophenyl)ethenyl]-5-methylpyrazole] | – | – | 14.5 | 5.7
5 | Nc1ccc(C(=O)O)cc1 [p-aminobenzoic acid, reference compound] | – | 132.2 | – | –
